Measurements as given in US11324768B2, “Applications of triacetyl-3-hydroxyl phenyl adenosine in treating vascular inflammations or improving vascular endothelium functions” (priority 2016, dated 2022).

Key:
Assay type in all cases: in vivo
[1] = test system: TNF-α; assay: Serum inflammatory factor TNF-α in ApoE−/− mice (ELISA); design: unit not given here
Description: After 1 week of adaptive feeding, the animals were randomly divided into 7 groups according to body weight: normal control group, model control group A769662 (30 mg/kg) administration group, metformin (260 mg/kg) administration group, IMM-H007 low, medium, and high administration groups (50, 100, 200 mg/kg), 8 in each group, and were given a high-fat diet (78.6% basal diet, 10% lard, 1.0% cholesterol, 10% egg yolk powder, and 0.4% bile salt), […] body weight, and were continuously administered and fed for 8 weeks to establish an atherosclerosis model.
(2) Effect of IMM-H007 on Serum Inflammatory Factors TNF-α and VCAM-1 in ApoE−/− Mice
Operated according to kit instructions

[2] = test system: ApoE−/− mice; assay: Intravascular inflammatory response in high-fat-fed ApoE−/− mice (chronic inflammation model); details: 8 weeks, high-fat diet
Description: After 1 week of adaptive feeding, the animals were randomly divided into 4 groups according to body weight: model control group, A769662 (30 mg/kg, ip), metformin (260 mg/kg), IMM-H007 (100 mg/kg) administration groups, 7 in each group, and were given a high-fat diet (78.6% basal diet, 10% lard, 1.00%/cholesterol, 10% egg yolk powder, and 0.4% bile salt), and simultaneously administered intragastrically at a dose of 0.1 ml/10 g body weight, and were continuously administered and fed for 8 weeks. The mice were anesthetized with pentobarbital sodium (60 mg/kg body weight). The right side of the mice was fixed on a observation table. A small mouth was cut along the abdominal cavity. The mesenteric vascular bed was gently pulled out. The small intestine of the mice was fixed in an observation window, the microscope is turned on to find a clear third-order mesenteric vein under a low power microscope, and then adjusted to 20-fold magnification for observation, after adjusting the brightness and focal length to the optimum, the white light was turned off, the fluorescence was turned on, and the leukocyte movement in the blood vessel could be observed. A 1 min leukocyte movement video was collected from each vessel segment using the ToumView software of the Dynamic Visual Microvascular Research System (Gene&I-SMC1). Leukocyte movement rate and number of leukocyte-endothelial cells adhesion were analyzed using image pro 6.0.
(1) Leukocyte Movement Rate and (2) Number of Leukocyte-Endothelial Cell Adhesion

[3] = test system: ApoE−/− mice; assay: Plaque area in ApoE−/− mice (oil red O staining of aorta and aortic root); details: for plaque area, Overall length of aorta: in % (unit assumed)
Description: After 1 week of adaptive feeding, the animals were randomly divided into 7 groups according to body weight: normal control group, model control group A769662 (30 mg/kg) administration group, metformin (260 mg/kg) administration group, IMM-H007 low, medium, and high administration groups (50, 100, 200 mg/kg), 8 in each group, and were given a high-fat diet (78.6% basal diet, 10% lard, 1.0% cholesterol, 10% egg yolk powder, and 0.4% bile salt), and simultaneously administered intragastrically at a dose of 0.1 ml/10 g body weight, […] model.
The aortic root was stained with oil red O and the overall length of the aorta was stained with oil red O. The pathological images were analyzed by Photoshop, Image 1, and Image-Pro Plus softwares. The pathological grading data were statistically analyzed using Chi-square test.

[4] = test system: C57BL/6J mice; assay: TNF-α-induced acute vascular inflammation in mice (leukocyte movement rate and leukocyte-endothelial cell adhesion in mesenteric venules); details: 7 days, 4 h after TNF-α
Description: 60 C57BL/6J mice were randomly divided into 6 groups according to body weight: normal control group, model control group, IMM-H007 group, positive control AMPK agonist group metformin, A769662 group, and atorvastatin group, respectively, and were intragastrically administered with physiological saline, IMM-H007 (100 mg/kg), metformin (260 mg/kg), and atorvastatin (lipitor, 10 mg/kg), respectively, and injected intraperitoneally with A769662 (30 mg/kg, which is difficult to absorb by oral administration) for 7 consecutive days. On the 8th day, except that the blank control group was intraperitoneally injected with normal saline, other groups were all intraperitoneally injected with TNF-α (0.3 μg/dose) to induce acute inflammations in the blood vessels. Four hours after the injection of TNF-α, the optic nerve vascular plexus was intravenously injected with 0.05% Rhodamine-6G, and leukocytes were fluorescently labeled with 100 μl. The mice were anesthetized with pentobarbital sodium. The right side of the mice was fixed on a observation table. A small mouth was cut along the abdominal cavity. The mesenteric vascular bed was gently pulled out. The small intestine of the mice was fixed in a observation window. The microscope is turned on to find a clear third-order mesenteric vein under a low power microscope, and then adjusted to 20-fold magnification for observation, after adjusting the brightness and focal length to the optimum, the white light was turned off, the fluorescence was turned on, and a 1 min leukocyte movement video was collected from each vessel segment using the ToumView software of the Dynamic Visual Microvascular Research System (Gene&I-SMC1). The leukocyte movement rate and leukocyte-endothelial cell adhesion number reflect intravascular inflammations and are early signs of endothelial dysfunction.
The leukocyte movement rate was analyzed with image pro 6.0. At least three observation points were selected for each observation field, and at least 9 observation sites were finally counted for each mouse. The mean value was calculated to obtain the average leukocyte movement rate.

[5] = test system: VCAM-1; assay: Serum inflammatory factor VCAM-1 in ApoE−/− mice (ELISA)

## CN(C)C(=N)N=C(N)N [Metformin, metformin]
[1]; 260 mg/kg
  serum TNF-α: 229.1 ± 35.2
[2]; 260 mg/kg
  Leukocyte movement rate: 21.4 µm/s
  Number of leukocyte adhesion: 16.3 ± 6.8 number/200 micron
[3]; 260 mg/kg
  plaque area, Frozen section of root of aorta %: 3.73 ± 1.15 %
  plaque area, Overall length of aorta: 3.13 ± 1.76
[4]; 260 mg/kg intragastric
  Leukocyte movement rate: 21.5 µm/s
  Number of leukocyte adhesion: 5.1 ± 2.2 number/200 micron
[5]; 260 mg/kg
  serum VCAM-1: 234.9 ± 16.7

## CC(C)c1c(C(=O)Nc2ccccc2)c(-c2ccccc2)c(-c2ccc(F)cc2)n1CC[C@@H](O)C[C@@H](O)CC(=O)O [Atorvastatin, atorvastatin]
[4]; 10 mg/kg intragastric
  Leukocyte movement rate: 20.6 µm/s
  Number of leukocyte adhesion: 5.3 number/200 µm

## N#Cc1c(O)c2c(-c3ccc(-c4ccccc4O)cc3)csc2[nH]c1=O [A769662]
[1]; 30 mg/kg, ip
  serum TNF-α: 247.3 ± 49.7
[2]; 30 mg/kg, ip
  Leukocyte movement rate: 28.7 ± 7 µm/s
  Number of leukocyte adhesion: 13.7 ± 4.9 number/200 micron
[3]; 30 mg/kg, ip
  plaque area, Frozen section of root of aorta %: 3.02 ± 0.89 %
  plaque area, Overall length of aorta: 2.61 ± 1.80
[4]; 30 mg/kg, ip
  Leukocyte movement rate: 24.9 ± 3.8 µm/s
  Number of leukocyte adhesion: 3.5 ± 1.8 number/200 micron
[5]; 30 mg/kg, ip
  serum VCAM-1: 233.1 ± 18.3
